Assay results reported in ChEMBL document CHEMBL1146684, “An electrochemical device for the assay of the interaction between a dioxin receptor and its various ligands” (Bioorg Med Chem Lett, 2004).

Molecular target: T1, Aryl hydrocarbon receptor (Homo sapiens, UniProt P35869)
T1 sequence (P35869 whole entry): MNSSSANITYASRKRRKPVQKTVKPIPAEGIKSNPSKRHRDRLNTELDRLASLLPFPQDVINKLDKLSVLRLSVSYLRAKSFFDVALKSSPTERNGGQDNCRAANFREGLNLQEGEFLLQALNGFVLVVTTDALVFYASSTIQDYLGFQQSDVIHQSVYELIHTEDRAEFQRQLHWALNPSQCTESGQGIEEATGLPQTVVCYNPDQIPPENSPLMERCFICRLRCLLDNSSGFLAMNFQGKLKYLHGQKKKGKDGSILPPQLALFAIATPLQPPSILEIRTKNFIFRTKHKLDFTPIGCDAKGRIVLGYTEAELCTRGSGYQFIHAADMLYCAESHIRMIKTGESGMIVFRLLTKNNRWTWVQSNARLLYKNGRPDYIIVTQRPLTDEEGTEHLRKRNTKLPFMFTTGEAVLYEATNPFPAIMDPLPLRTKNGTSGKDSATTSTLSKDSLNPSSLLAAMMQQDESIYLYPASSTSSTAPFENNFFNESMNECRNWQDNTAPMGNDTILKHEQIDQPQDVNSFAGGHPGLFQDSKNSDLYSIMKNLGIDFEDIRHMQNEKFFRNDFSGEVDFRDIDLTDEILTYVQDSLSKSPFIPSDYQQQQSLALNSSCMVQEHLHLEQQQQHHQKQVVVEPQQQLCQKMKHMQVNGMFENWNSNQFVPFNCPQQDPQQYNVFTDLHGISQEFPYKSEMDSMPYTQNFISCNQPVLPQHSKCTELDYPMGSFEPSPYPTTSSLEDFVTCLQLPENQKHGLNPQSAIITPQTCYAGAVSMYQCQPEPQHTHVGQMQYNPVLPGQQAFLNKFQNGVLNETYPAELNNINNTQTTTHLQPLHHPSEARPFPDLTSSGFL
Assay: Compound tested for its binding to human Orphan receptor (AhR); Active; call rule not given here

Compound	Activity
c1ccc2c(c1)cc1ccc3cccc4ccc2c1c34 [BENZO[DEF]CHRYSENE]	Active
O=c1cc(-c2ccccc2)oc2ccc3ccccc3c12 [BETA-NAPHTHOFLAVONE]	Active
Clc1cc2c(cc1Cl)Oc1cc(Cl)c(Cl)cc1O2 [2,3,7,8-TETRACHLORODIBENZO-P-DIOXIN]	Active
